# How the values were obtained:
# E. faecium VRAR E315 = assay: electron microscopy of cell division (FIG. 3); assay type: cell-based, Enterococcus faecium; conditions: 16 μg/ml, 4 hours
# Description: FIG. 3 a) to c) are electron microscope photographs of E. faecium VRAR E315 after 4 hours growth without antibiotic and d), e) and f) in the presence of 16 μg/ml 7-O-malonyl macrolactin A;
# It is thought that 7-O-malonyl macrolactin A inhibits the division of bacterial cells, which interrupts the proliferation thereof.
# The effect of 7-O-malonyl macrolactin A on cell division can also be observed from the electron microscope photographs of Enterococcus faecium (VRAR=vancomycin-resistant, ampicillin-resistant, E315, clinical isolate) shown in FIG. 3. The division planes of the untreated cells after 4 hours growth without antibiotic appear as light regions in FIGS. 3a), b) and c). […] In this example, however, no fully formed cell division planes are evident. The initiation of asymmetrical cell division is indicated by the small black arrowheads.
# [1] = system: S. aureus # (non-methicillin-resistant reference strain); assay: MIC / MBC in liquid culture; assay type: cell-based, Staphylococcus aureus; conditions: S. aureus #
# [2] = system: S. aureus # (own collection, methicillin-sensitive control strain); assay: agar diffusion method, inhibition zone; assay type: cell-based, Staphylococcus aureus; conditions: Staphylococcus aureus; S. aureus # own collection; MH agar, 18 hours at 37° C.; per disk 10 μl crude extract, 50 μg macrolactin, 78 μg erythromycin, 30 μg vancomycin, 10 μg ampicillin
# Description: (§1) The agar diffusion method employing Mueller-Hinton (MH) agar (Difco Laboratories) was used to determine effectiveness against bacteria and yeasts. Sterile paper disks (Schleicher & Schüell, Germany) were seeded with 10 μl crude extract or with a solution of purified macrolactin (final compound concentration on the disk 50 μg) and then placed on the surface of MH-agar plates that had been seeded beforehand with a suspension of overnight culture of the test microorganisms at a concentration of 10^5 cells/ml.
# [3] = system: MRSA 2 (methicillin-resistant S. aureus, clinical isolate); assay: agar diffusion method, inhibition zone; assay type: cell-based, Staphylococcus aureus; conditions: Staphylococcus aureus; MRSA 2; MH agar, 18 hours at 37° C.; per disk 10 μl crude extract, 50 μg macrolactin, 78 μg erythromycin, 30 μg vancomycin, 10 μg ampicillin
# Description: as §1
# S. aureus DSMZ 1104 = assay: agar diffusion method, inhibition zone; assay type: cell-based, Staphylococcus aureus; conditions: Staphylococcus aureus, DSMZ1104; S. aureus DSMZ 1104; MH agar, 18 hours at 37° C.; per disk 10 μl crude extract, 50 μg macrolactin, 78 μg erythromycin, 30 μg vancomycin, 10 μg ampicillin
# Description: as §1
# [4] = system: MRSA 3 (methicillin-resistant S. aureus, clinical isolate); assay: agar diffusion method, inhibition zone; assay type: cell-based, Staphylococcus aureus; conditions: Staphylococcus aureus; MRSA 3; MH agar, 18 hours at 37° C.; per disk 10 μl crude extract, 50 μg macrolactin, 78 μg erythromycin, 30 μg vancomycin, 10 μg ampicillin
# Description: as §1
# [5] = system: Enterococcus faecalis ATCC 29212; assay: kinetics of growth at sub-MIC concentrations (FIG. 1C); assay type: cell-based; conditions: E. faecalis ATCC 29212; 4 or 16 μg/ml; four hours following cultivation
# Source text: (§2) • FIG. 1A y-axis: Log CFU (Colony Forming Units) Cells/ml • x-axis: Time (HRS) • FIG. 1B y-axis: Log CFU (Colony Forming Units) Cells/ml • x-axis: Time (HRS) • FIG. 1C: y-axis: Log CFU (Colony Forming Units) Cells/ml • x-axis: Time (HRS) • FIG. 1D: y-axis: Log CFU (Colony Forming Units) Cells/ml • x-axis: Time (HRS) • FIG. 1E: y-axis: Log CFU (Colony Forming Units) Cells/ml • x-axis: Time (HRS) • FIG. 1F: y-axis: Log CFU (Colony Forming Units) Cells/ml • x-axis: Time (HRS) • FIG. 5A: y-axis: % Inhibition • x-axis Concentration μg/ml • FIG. 5B: y-axis: % Inhibition • x-axis Concentration μg/ml
# Candida krusei DSM 6128 = assay: MIC / MBC in liquid culture; assay type: cell-based; conditions: Pichia kudriavzevii
# [6] = system: Enterococcus faecium VRAR E315; assay: kinetics of growth at sub-MIC concentrations (FIG. 1D); assay type: cell-based; conditions: E. faecium E315; 4 or 16 μg/ml; four hours following cultivation
# Source text: as §2
# [7] = system: Candida albicans DSM 11225; assay: MIC / MBC in liquid culture; assay type: cell-based; conditions: DSM11225, read-out: MIC (minimal inhibitory concentration)
# B. cepacia SCV 141 [8] = assay: MIC / MBC in liquid culture; assay type: cell-based, Burkholderia cepacia; conditions: Burkholderia cepacia
# Source text: (§3) 7-O-malonyl macrolactin A was not effective against some of the gram-negative bacteria tested by the inventors.
# B. cepacia WT139 = assay: MIC / MBC in liquid culture; assay type: cell-based, Burkholderia cepacia
# Source text: as §3
# E. faecalis VRAS E305 = assay: MIC / MBC in liquid culture; assay type: cell-based, Enterococcus faecalis; conditions: E. faecalis VRAS E305
# B. cepacia SCV 141 [9] = assay: agar diffusion method, inhibition zone; assay type: cell-based, Burkholderia cepacia; conditions: 18 hours at 37° C., per disk 10 μl crude extract, 50 μg macrolactin, 78 μg erythromycin, 10 μg ampicillin
# Description: as §1
# The B. cepacia strain used, which is a clinical isolate from a cystic fibrosis patient, forms small colonies (SCV 141).
# MRSA 2 = assay: MIC / MBC in liquid culture; assay type: cell-based, Staphylococcus aureus; conditions: MRSA 2
# [10] = system: Burkholderia cepacia SCV 141; assay: kinetics of growth (FIG. 1F); assay type: cell-based; conditions: B. cepacia SCV 141; 32 μg/ml
# Source text: as §2
# [11] = Staphylococcus aureus, pronounced inhibition of growth, read-out: MBC (minimal bacteriostatic or fungistatic concentration)
# [12] = Staphylococcus aureus, read-out: MIC (minimal inhibitory concentration)
smiles,measurement,setting,value
CC1CCC/C=C/C=C/C(O)CC(O)C/C=C\C=C\C(OC(=O)CC(=O)O)C/C=C/C=C\C(=O)O1 (stereo not drawn) [7-O-malonyl macrolactin A],"effect on cell division, electron microscope",E. faecium VRAR E315,"anomalous, asymmetrical cell division is being initiated"
same,MIC (minimal inhibitory concentration),[1],>128 µg/mL
same,MBC,[1]; [11],1 µg/mL
same,MIC,[1]; [12],> 128 µg/mL
same,zone of inhibition at 50 µg/disc,[2],30 mm
same,zone of inhibition at 50 µg/disc,[3],40 mm
same,zone of inhibition at 50 µg/disc,S. aureus DSMZ 1104,26 mm
same,zone of inhibition at 50 µg/disc,[4],41 mm
same,effect on kinetics of growth,[5],inhibited the growth
same,MBC,"Candida krusei DSM 6128; DSM6128, read-out: MBC (minimal bacteriostatic or fungistatic concentration)",32 µg/mL
same,MIC,"Candida krusei DSM 6128; DSM6128, read-out: MIC (minimal inhibitory concentration)",> 128 µg/mL
same,effect on kinetics of growth,[6],almost completely inhibited
same,MIC,[7],> 128 µg/mL
same,MBC,"B. cepacia SCV 141 [8]; SCV141, read-out: MBC (minimal bacteriostatic or fungistatic concentration)",32 µg/mL
same,MIC,"B. cepacia SCV 141 [8]; SCV141, read-out: MIC (minimal inhibitory concentration)",128 µg/mL
same,MBC (minimal bacteriostatic or fungistatic concentration),B. cepacia WT139,not observed
same,MIC (minimal inhibitory concentration),B. cepacia WT139,>128 µg/mL
same,MIC,"B. cepacia WT139; Burkholderia cepacia, read-out: MIC (minimal inhibitory concentration)",> 128 µg/mL
same,MIC (minimal inhibitory concentration),E. faecalis VRAS E305,>128 µg/mL
same,MBC,"E. faecalis VRAS E305; Enterococcus faecalis, VRASE305, read-out: MBC (minimal bacteriostatic or fungistatic concentration)",0.06 µg/mL
same,MIC,"E. faecalis VRAS E305; Enterococcus faecalis, VRASE305, read-out: MIC (minimal inhibitory concentration)",> 128 µg/mL
same,zone of inhibition at 50 µg/disc,"B. cepacia SCV 141 [9]; Burkholderia cepacia, SCV141, MH agar",15 mm
same,Inhibition zone,B. cepacia SCV 141 [9]; MH agar,produced an inhibition zone
same,MIC (minimal inhibitory concentration),MRSA 2,>128 µg/mL
same,MBC,MRSA 2; [11],4 µg/mL
same,MIC,MRSA 2; [12],> 128 µg/mL
same,growth inhibited by a factor,[10],≤ 10

# Source: patent publication US7977375B2, “Antibiotic and method of production thereof” (Helmholtz-Zentrum Für Infektionsforschung GmbH, priority 2004, dated 2011)
